Results on 8 molecules are retold here after patent publication US20240122933A1, “USE OF ISOQUINOLINE-1,5-DIAMINES FOR WOUND HEALING” (Lutris Pharma Ltd., priority 2021, published 2024).

Data set [1] relates to Mitogen-Activated Protein Kinase (MAPK or ERK). Kind of data set: MAPK (ERK phosphorylation) activity screen of BRaf inhibitors of Formula (I) vs. reference C-1. The class given is cell-based. The settings on record: MAPK activity of compound relative to reference compound C-1. The text has this:
The BRaf inhibitors of this disclosure were screened for phosphorylation of ERK (MAPK).
(§1) The chemical structures, synthetic schemes and the synthetic procedures for each of the compounds of Formula (I) of this disclosure, as well as their MAPK (ERK) and the phototoxicity studies of LUT-014 were detailed in Shelach N., U.S. Patent Application Publication No. U.S.2019389862, which is incorporated herein in its entirety.

The nature of data set [2]: Phototoxicity: Photo-Irritation Factor (PIF) or Mean Photo Effect (MPE). The data set is classed as cell-based. How it is done: The level of phototoxicity was determined by measuring a Photo-Irritation Factor (PIF) or a Mean Photo Effect (MPE) of one of the compounds of Formula (I), namely LUT-014 (R=3-(trifluoromethoxy)phenyl).
as §1

In another data set the test system is wound. The settings on record: given alone; cited from earlier work.

On to `Cc1ccc2c(Nc3ccc(F)c(Cl)c3)nccc2c1Nc1ncccc1-c1ncnc2[nH]cnc12` [LUT-015], for which the “LUT/C1 MAPK Ratios” value in data set [1] is reported as 2.1. For `Cc1ccc2c(Nc3cc(C(C)(C)C)nn3C)nccc2c1Nc1ncccc1-c1ncnc2nc[nH]c12` [LUT-013], the “LUT/C1 MAPK Ratios” value in data set [1] is on record as 3.4. With `Cc1ccc2c(Nc3cccc(OC(F)(F)F)c3)nccc2c1Nc1ncccc1-c1ncnc2[nH]cnc12` [LUT-014], the “LUT/C1 MAPK Ratios” value in data set [1] was determined as 2.9. Further, in data set [2], the “Photo-Irritation Factor (PIF)” value was “less than 2” and the phototoxicity entry is listed as “low phototoxicity”. In the case of `C#Cc1cccc(Nc2nccc3c(Nc4ncccc4-c4ncnc5nc[nH]c45)c(C)ccc23)c1` [LUT-012], the “LUT/C1 MAPK Ratios” value in data set [1] came to 0.7. The same measure, in the same setting: in the case of `Cc1ccc2c(Nc3ccc(I)cc3F)nccc2c1Nc1ncccc1-c1ncnc2nc[nH]c12` [LUT-016] it was 2.0; in that of `Cc1ccc2c(Nc3cccc(S(N)(=O)=O)c3)nccc2c1Nc1ncccc1-c1ncnc2[nH]cnc12` [LUT-020], 1.0; in that of `Cc1ccc2c(Nc3ccc(Cl)c(C(F)(F)F)c3)nccc2c1Nc1ncccc1-c1ncnc2nc[nH]c12` [LUT-017], 3.5.

B1: Becaplermin (protein, UniProt P01127 82-190, looked up)
Platelet-derived growth …: SLGSLTIAEPAMIAECKTRTEVFEISRRLIDRTNANFLVWPPCVEVQRCSGCCNNRNVQCRPTQVQLRPVQVRKIEIVRKKPIFKKATVTLEDHLACKCETVAAARPVT
notes: recombinant human platelet-derived growth factor, FDA-approved for promoting healing of diabetic foot ulcers
With B1, the “effect in promoting wound healing” value in the data set on wound is “only a modest beneficial effect”.
